Laboratory results: patent US6967261B1, “Bandage, methods of producing and using same” (Kimberly-Clark Worldwide, priority 2001, dated 2005)

What was measured:
[1] = test system: full thickness (excisional) wounds; assay: Accelerated wound healing study, full thickness acute wound model; format: in vivo, albino rats; conditions: rats, topical on wound, over 15 days; versus gauze and Comfeel
Procedure: In the examples of the study, a series of comparative control bandage substrates were evaluated as to the speed at which wounds covered/dressed with such bandages healed. In particular, the rates of re-epithelialization were measured for wounds dressed by such control dressing materials.
Wounds were treated with test and control articles on the day of wounding (day 0) on 2,4,6,8,10, 12, and 14 days after the injury. CNA (freeze dried) was cut to the approximate size of the wound and applied over the wound. Chitosan (powder) and NA (powder) were applied over the wound to the depth that covered the underlying tissue. The gauze was cut to extend approximately 0.5 cm beyond the margins of the wound. […]
For the study, twenty four albino rats (12M/12F), each weighing between 250-300 g, were anesthetized (90 mg/Kg Ketamine HCL and 10 mg/Kg Xylazine) and the entire dorsal region of each rat was shaved. […] The epithelial thickness of the three sections of the wound (margin, center and midpoint between these two) was measured by morphometric analysis of the microscopic image using Image-Pro Plus software, Version 3.0 (Media Cybernetics). The average thickness of these sites within the wound was determined for wound healing of the entire site.

human blood = assay: Lee and White coagulation assay in human blood; conditions: dried form, 5 mg/ml, triplicate
Procedure: Several hemostatic agents were compared to determine relative effectiveness when reviewed with untreated human blood. Such comparison is illustrated in the following Table 23.
Each of the compounds were evaluated in the comparison against the standard control (human blood) and the negative control heparin, which is an anti-coagulant.
Lee and White Coagulation Assay in Human Blood

| Molecule | wound healing capability (rate of epithelialization, epithelial thickness) [1] | BLOOD CLOTTING TIME (human blood) |
| --- | --- | --- |
| NC(=O)c1cccnc1.O=C1O[C@H]([C@@H](O)CO)C(O)=C1O [NA, Niacinamide ascorbate] | dramatically increased the wound healing capability |  |
| Heparin |  | NC (NC = No Clot for 60 min) |
